Measurements from PubChem BioAssay AID248 (DTP/NCI, 2004).
Values joined by “and” are separate entries in the source; they are usually repeats but may differ in a detail not shown here. Equal entries are not always repeated. Toxic doses and inconclusive results are not listed. Cut-off read from the data, not from the text of the source: active = T/C of 150% or more; inactive = T/C below 125%.

System: L1210 leukemia ip in BDF1 mice, survival T/C
Assay: NCI In Vivo Anticancer Drug Screen. Data for tumor model L1210 Leukemia (intraperitoneal) in B6D2F1 (BDF1) mice
Settings: endpoint: mean survival time, higher = longer survival
In short: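 Survival endpoint. Drug-treated group vs vehicle group, expressed as T divided by C. Tumor passaged by transplantation.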

[1] = dose: 100.0 mg/kg/injection, schedule: Q04DX002 (ip), vehicle: saline
[2] = dose: 200.0 mg/kg/injection, schedule: Q04DX002 (ip), vehicle: saline
[3] = dose: 100.0 mg/kg/injection, schedule: Q01DX009 (ip), vehicle: saline with Tween-80
[4] = dose: 200.0 mg/kg/injection, schedule: Q01DX009 (ip), vehicle: saline with Tween-80
[5] = dose: 25.0 mg/kg/injection, schedule: Q01DX009 (ip), vehicle: Klucel (hydroxypropylcellulose) (HPC)
[6] = dose: 50.0 mg/kg/injection, schedule: Q01DX009 (ip), vehicle: Klucel (hydroxypropylcellulose) (HPC)
[7] = dose: 100.0 mg/kg/injection, schedule: Q01DX009 (ip), vehicle: Klucel (hydroxypropylcellulose) (HPC)
[8] = dose: 100.0 mg/kg/injection, schedule: Q04DX003 (ip), vehicle: Klucel (hydroxypropylcellulose) (HPC)
[9] = dose: 200.0 mg/kg/injection, schedule: Q04DX003 (ip), vehicle: Klucel (hydroxypropylcellulose) (HPC)

Measured: T/C

O=C1Nc2ccccc2Oc2ccccc21
inactive: dose: 100.0 mg/kg/injection, schedule: Q01DX009 (ip), vehicle: saline 105 % of control | dose: 100.0 mg/kg/injection, schedule: Q04DX003 (ip), vehicle: saline 92 % of control | dose: 200.0 mg/kg/injection, schedule: Q01DX009 (ip), vehicle: saline 93 % of control | dose: 200.0 mg/kg/injection, schedule: Q04DX003 (ip), vehicle: saline 91 % of control | dose: 400.0 mg/kg/injection, schedule: Q01DX009 (ip), vehicle: saline 98 % of control | dose: 400.0 mg/kg/injection, schedule: Q04DX003 (ip), vehicle: saline 92 % of control

CC1=NN=S(CC2=C(C(=O)O)N3C(=O)C(NC(=O)C[n+]4cc(=O)o[nH]4)C3SC2)S1 (stereo not drawn)
inactive: dose: 50.0 mg/kg/injection, schedule: Q04DX002 (ip), vehicle: saline 118 % of control | [1] 103 % of control | [2] 114 % of control

CN(C)C(=O)c1cc(NC(=O)c2ccc(C(=O)Nc3cc(C(=O)N(C)C)cc(C4=NCCN4)c3)cc2)cc(C2=NCCN2)c1
inactive: dose: 7.5 mg/kg/injection, schedule: Q01DX015 (ip), vehicle: methylcellulose (MC) 98 % of control | dose: 15.0 mg/kg/injection, schedule: Q01DX015 (ip), vehicle: methylcellulose (MC) 98 % of control and 108 % of control | dose: 60.0 mg/kg/injection, schedule: Q01DX015 (ip), vehicle: methylcellulose (MC) 98 % of control

CCCCCCCCCCCCCCCC(=O)OC(C)COC (stereo not drawn)
inactive: dose: 50.0 mg/kg/injection, schedule: Q01DX009 (ip), vehicle: saline with Tween-80 108 % of control | dose: 100.0 mg/kg/injection, schedule: Q01DX001 (ip), vehicle: other 102 % of control | [3] 98 % of control | dose: 100.0 mg/kg/injection, schedule: Q04DX003 (ip), vehicle: other 111 % of control | dose: 200.0 mg/kg/injection, schedule: Q01DX001 (ip), vehicle: other 94 % of control | [4] 98 % of control | dose: 200.0 mg/kg/injection, schedule: Q04DX003 (ip), vehicle: other 107 % of control | dose: 400.0 mg/kg/injection, schedule: Q01DX001 (ip), vehicle: other 101 % of control | dose: 400.0 mg/kg/injection, schedule: Q04DX003 (ip), vehicle: other 110 % of control

O=C(Nc1ccc(OP(=O)(O)O)cc1)c1ccc(C(=O)Nc2ccc(OP(=O)(O)O)cc2)cc1
inactive: dose: 2.5 mg/kg/injection, schedule: Q01DX Z (ip), vehicle: water 96 % of control | dose: 5.0 mg/kg/injection, schedule: Q01DX Z (ip), vehicle: water 104 % of control | dose: 7.5 mg/kg/injection, schedule: Q01DX Z (ip), vehicle: water 93 % of control | dose: 10.0 mg/kg/injection, schedule: Q01DX Z (ip), vehicle: water 93 % of control | dose: 18.7 mg/kg/injection, schedule: Q01DX Z (ip), vehicle: water 104 % of control

Cc1cc(=O)[nH]c(Nc2nc3cc(Cl)c(Cl)cc3[nH]2)n1
inactive: [3] 92 % of control | [4] 90 % of control | dose: 400.0 mg/kg/injection, schedule: Q01DX009 (ip), vehicle: saline with Tween-80 97 % of control

CC#CC#C/C=C1/C=CC(=O)O1
inactive: dose: 6.25 mg/kg/injection, schedule: Q01DX009 (ip), vehicle: saline 98 % of control | dose: 6.25 mg/kg/injection, schedule: Q04DX003 (ip), vehicle: saline 96 % of control | dose: 12.5 mg/kg/injection, schedule: Q01DX009 (ip), vehicle: saline 105 % of control | dose: 12.5 mg/kg/injection, schedule: Q04DX003 (ip), vehicle: saline 103 % of control | dose: 25.0 mg/kg/injection, schedule: Q01DX009 (ip), vehicle: saline 94 % of control | dose: 25.0 mg/kg/injection, schedule: Q04DX003 (ip), vehicle: saline 91 % of control

O=c1onc(-c2ccccc2)c2ccccc12
inactive: dose: 12.5 mg/kg/injection, schedule: Q04DX002 (ip), vehicle: saline with Tween-80 106 % of control | dose: 25.0 mg/kg/injection, schedule: Q04DX002 (ip), vehicle: saline with Tween-80 106 % of control | dose: 50.0 mg/kg/injection, schedule: Q04DX002 (ip), vehicle: saline with Tween-80 103 % of control

O=C(OCC1OC(n2c(=O)[nH]c(=O)c3ncsc32)C(OC(=O)c2ccccc2)C1OC(=O)c1ccccc1)c1ccccc1 (stereo not drawn)
inactive: dose: 100.0 mg/kg/injection, schedule: Q01DX005 (ip), vehicle: saline 95 % of control | dose: 200.0 mg/kg/injection, schedule: Q01DX005 (ip), vehicle: saline 101 % of control

CC[n+]1ccc(Cc2ccc([N+](=O)[O-])cc2)cc1
inactive: [5] 102 % of control | [6] 95 % of control | [7] 100 % of control

Cc1[nH]c2ccccc2c1C(Cc1ccccc1N)c1c(C)[nH]c2ccccc12
inactive: dose: 50.0 mg/kg/injection, schedule: Q01DX001 (ip), vehicle: saline 101 % of control | dose: 100.0 mg/kg/injection, schedule: Q01DX001 (ip), vehicle: saline 104 % of control | dose: 200.0 mg/kg/injection, schedule: Q01DX001 (ip), vehicle: saline 101 % of control | dose: 400.0 mg/kg/injection, schedule: Q01DX001 (ip), vehicle: saline 104 % of control

CCCCCCCC/C=C\CCCCCCCC(=O)NCC[N+]1(C)CCCCC1
inactive: dose: 75.0 mg/kg/injection, schedule: Q01DX001 (ip), vehicle: saline 94 % of control | dose: 150.0 mg/kg/injection, schedule: Q01DX001 (ip), vehicle: saline 97 % of control

CN=C(N)c1ccc(N=C(N)c2ccc(C(N)=Nc3ccc(C(N)=NC)cc3)c(Cl)c2)cc1
inactive: dose: 7.5 mg/kg/injection, schedule: Q01DX Z (oral), vehicle: saline 101 % of control | dose: 15.0 mg/kg/injection, schedule: Q01DX Z (oral), vehicle: saline 98 % of control | dose: 30.0 mg/kg/injection, schedule: Q01DX Z (oral), vehicle: saline 101 % of control | dose: 60.0 mg/kg/injection, schedule: Q01DX Z (oral), vehicle: saline 101 % of control

OC1CNCCc2ccccc21 (stereo not drawn)
inactive: [5] 102 % of control | [6] 103 % of control | [7] 94 % of control | [8] 92 % of control | [9] 88 % of control

CC1CCCC(C)N1NC(=O)NCCCl (stereo not drawn)
inactive: [7] 100 % of control | [8] 100 % of control | dose: 200.0 mg/kg/injection, schedule: Q01DX009 (ip), vehicle: Klucel (hydroxypropylcellulose) (HPC) 102 % of control | [9] 100 % of control | dose: 400.0 mg/kg/injection, schedule: Q01DX009 (ip), vehicle: Klucel (hydroxypropylcellulose) (HPC) 102 % of control | dose: 400.0 mg/kg/injection, schedule: Q04DX003 (ip), vehicle: Klucel (hydroxypropylcellulose) (HPC) 97 % of control

Cc1ccc(Nc2nc(N)nc(N)c2N=O)cc1Cl
inactive: dose: 100.0 mg/kg/injection, schedule: Q01DX Z (ip), vehicle: methylcellulose (MC) 104 % of control | dose: 200.0 mg/kg/injection, schedule: Q01DX Z (ip), vehicle: methylcellulose (MC) 89 % of control

O=C1C2C3CCC(O3)C2C(=O)N1CCO (stereo not drawn)
inactive: [1] 109 % of control | [2] 106 % of control | dose: 400.0 mg/kg/injection, schedule: Q04DX002 (ip), vehicle: saline 98 % of control

CCCCCC(O)C1C(=O)OC(C)C(O)/C=C/C=C/C=C/C=C/C=C(\C)C(O)C(O)C(O)CC(O)CC(O)CC(O)CC(O)CC1O (stereo not drawn)
inactive: dose: 0.5 mg/kg/injection, schedule: Q01DX001 (ip), vehicle: saline 97 % of control | dose: 1.0 mg/kg/injection, schedule: Q01DX001 (ip), vehicle: saline 97 % of control | dose: 2.0 mg/kg/injection, schedule: Q01DX001 (ip), vehicle: saline 95 % of control | dose: 4.0 mg/kg/injection, schedule: Q01DX001 (ip), vehicle: saline 92 % of control | dose: 8.0 mg/kg/injection, schedule: Q01DX001 (ip), vehicle: saline 97 % of control

O=[N+]([O-])c1ccc(O)c(/C=N\NC(=S)Nc2ccc3cn[nH]c3c2)c1
inactive: dose: 50.0 mg/kg/injection, schedule: Q01DX001 (ip), vehicle: carboxymethylcellulose (CMC) 97 % of control | dose: 100.0 mg/kg/injection, schedule: Q01DX001 (ip), vehicle: carboxymethylcellulose (CMC) 103 % of control | dose: 200.0 mg/kg/injection, schedule: Q01DX001 (ip), vehicle: carboxymethylcellulose (CMC) 93 % of control | dose: 400.0 mg/kg/injection, schedule: Q01DX001 (ip), vehicle: carboxymethylcellulose (CMC) 97 % of control
